From patent publication US11612609B2, “Uses of oxygenated cholesterol sulfates (OCS)” (Virginia Commonwealth University, priority 2013, dated 2023)
Entries after “also recorded” stand apart in the source; their conditions may differ.

Legend:
[1] = tested on: acute liver failure induced by acetaminophen; assay: Acetaminophen (ATMP) 500 mg/kg acute liver failure in mice, serum markers (Example 1A); type: in vivo
Description: (§1) Female mice were peritoneally-injected with acetaminophen (500 mg/kg, in 10% ethanol in PBS) either 0.5 or 2 hrs before being treated by administration of 25HC3S (20 or 25 mg/kg, 10% propylene glycol in PBS). Sera were collected 24 or 48 hrs following acetaminophen administration and enzymatic activities and other serum parameters were measured.

[2] = Level of 25HC3S in blood and tissues after administration (Example 1A, FIG. 3); type: in vivo, mice
Description: FIGS. 3A and B. Concentration of 25HC3S in A, blood and B, the indicated tissues of rats subjected to high levels of ATMP.
as §1
FIGS. 3A and 3B show the level of 25HC3S in blood (3A) and the indicated tissues (3B) at the indicated times after administration.

[3] = tested on: high dose of acetaminophen (ATMP); assay: ATMP 600 mg/kg in mice, 10-day mortality and liver function markers (Example 1B); type: in vivo
Description: In another set of experiments, female mice were peritoneally-injected with acetaminophen (600 mg/kg, in 20% EtOH in PBS) and were then further treated by peritoneal injection of 25HC3S (25 mg/kg in 10% PG in PBS) 2 and 24 hrs later. Control mice received ATMP without 25HC3S. Mortality was monitored for 10 days.

[4] = tested on: acute liver failure, as induced by PO administration of acetaminophen; assay: ATMP 300 mg/kg PO in mice, serum chemistry and body weight (Example 2); type: in vivo; conditions: 25HC3S 25 mg/kg IP or PO, 1 hour and 24 hours after ATMP 300 mg/kg PO; vs route-matched vehicle
Description: Mice were challenged with acetaminophen (300 mg/kg PO) and then treated with vehicle or 25HC3S (25 mg/kg) by IP injection or PO gavage, one (1) hour and 24 hours after acetaminophen challenge. Measurements and samples included whole blood for serum and clinical chemistry analysis (ALT, AST, ALK, LDH, BUN and glucose) and livers and kidneys for formalin fixation and histology.

[5] = tested on: renal ischemia/reperfusion; assay: Kidney ischemia-reperfusion in rats (Example 3); type: in vivo, Lewis rats
Description: 25HC3S was dissolved in propylene glycol, at 20 mg/mL, and stored at room temperature as the stock solution. Before use, 3 parts of PBS was mixed with 1 part of DV928 stock solution. The final concentration for injection was 5 mg/ml. Preparation of the Formulation for oral gavage: […]
25HC3S was suspended in 0.5% carboxymethylcellulose (CMC) containing 0.05% tween-80, at 10 mg/mL, and stored at room temperature and mixed well before use.
Adult (9- to 11-week-old) male Lewis (LEW, RE11) rats, 225-250 gram, were housed in a controlled 12-hr light-dark cycle environment and allowed free access to water and regular rat chow. All rats were anesthetized with pentobarbital 40 mg/kg i.p.
Ischemia of the left kidney was performed by transient occlusion of the left renal artery and vein, and ureter for 50 min with a vascular micro-clip. The skin was temporarily closed during the ischemia period, and the rats were put on a heating pad maintained at a temperature of 37° C. At reperfusion, the right kidney was removed before closing the abdomen with 4-0 silk suture.
Animals were randomly divided into 5 groups: • Group A. 25HC3S—i.p. dosing (as pre-treatment) N=12 • Group B. 25HC3S—i.p. dosing (as post-treatment) N=12 • Group C. 25HC3S—oral dosing (as pre-treatment) N=12 • Group D. Vehicle control, i.p. (as pre-treatment) N=6 • Group E. Vehicle control, oral (as pre-treatment) N=6
Rats in the pre-treatment groups received active or vehicle 1 day before (Day −1) the surgical intervention (I/R event) and continued for a total of 4 days. Rats in the post-treatment group received the 1st treatment at 30 min after the renal artery occlusion and continued for a total of 3 days. Blood samples were taken from all rats 2 days before the surgery (as baseline), 3 days after the surgery, and 7 days after the surgery for serum creatinine and blood urea nitrogen (BUN) analysis. All rats were sacrificed on Day 7.

[6] = tested on: heart ischemia-reperfusion injury; assay: Heart ischemia-reperfusion in mice (Example 4); type: in vivo, C67B16 mice
Description: Wild-type C67B16 mice, both males and females, were used in the experiment. After anesthesia, the thorax of each mouse was opened and the heart was subject to a 45-minute ischemic period by ligation of the left anterior descending coronary artery, and then reperfusion was allowed by removing the coronary arterial obstruction. The thorax was closed, and mice were allowed to recover for 24 hours. All animals were sacrificed at the end of the study, 24 h after the procedure, to gain access to the heart tissue. The heart was frozen, sectioned into slices, and then stained to determine the infarct size.
Given the experience that 25-30% of the animals may die within the 24-hour period because of the procedure (occlusion of coronary artery), all groups included 12 animals. The vehicle treated group (12 mice) was compared with 25HC3S treated groups (24 mice). One group of mice received the drug (25HC3S) just before ischemia/reperfusion (FR) and another group received drug about 16-20 h before FR. Administration was via the i.p. route with either vehicle (10% propylene glycol in PBS) or 25HC3S at a dose of 25 mg/kg in the same vehicle.

[7] = tested on: transient focal cerebral ischemia (tMCAO); assay: Brain stroke study, transient middle cerebral artery occlusion (tMCAO) in rats (Example 5); type: in vivo, Sprague Dawley rats; conditions: for tissue viability (T2 relaxation time): lower T2 in ms vs vehicle
Description: Transient focal cerebral ischemia was produced by right side middle cerebral artery (MCA) occlusion in male Sprague Dawley rats under anesthesia. After 120 min of ischemia, the MCA blood flow was restored. The procedure was therefore named tMCAO. All rats were given an i.p. injection of saline (4 ml per rat) after the surgery. Three groups of rats were used in the study: • Group A: 12 sham operated rats received vehicle by ip injection • Group B: 12 tMCAO rats received vehicle by ip injection • Group C: 12 tMCAO rats received 25HC3S by ip injection The parameters measured were as follows: • Mean body weight over time • Mean 7- and 20-point Neuroscore over time • Limb Placing test results over time • Mean infarct volumes (mm3), edema volumes (mm3) and T2-relaxation times (ms) Behavioral testing was conducted at 24 hours, 3 days, and 7 days post transient middle cerebral artery occlusion (tMCAO). Both 20-point Neuroscore and 7-point Neuroscore tests were conducted to assess post-ischemic motor and behavioral deficits. The Limb Placing test was conducted to assess the sensory motor integration of fore- and hind-limbs responses to tactile and proprioceptive stimulation. MRI acquisitions in vivo for all rats were performed at 24 h and 7 days after tMCAO.Lesion size, tissue viability (T2 in milliseconds), and brain edema were determined using absolute T2-MRI. Eighteen (18) coronal slices of thickness 1 mm were acquired using field-of-view imaging matrix. Absolute T2-values from contra-lateral cortex were used as a reference for tissue viability. All MRI data were analyzed using Matlab software. The infarct volume/oedema analysis was done by an observer blinded to the treatment groups. Results

[8] = tested on: sepsis induced by the endotoxin lipopolysaccaride (LPS); assay: Sepsis induced by LPS, 25HC3S given 2 hrs after LPS (Examples 6A and 6B); type: in vivo, C57BL/6J mice; conditions: 25HC3S 25 mg/kg 2 hrs after LPS, vs vehicle
Description: To examine the effect of 25HC3S on sepsis induced by the endotoxin lipopolysaccaride (LPS), 11-week-old female C57BL/6J mice were IV-injected with LPS (30 mg/kg or 40 mg/kg, in PBS) 2 hrs before being treated by administration of 25HC3S (25 mg/kg, 10% propylene glycol in PBS), and mortality was monitored (% survival).

mortality induced by LPS = assay: Mortality induced by LPS, pretreatment with 25HC3S (Example 6C); type: in vivo, C57BL/6J mice; conditions: LPS 4 mg/kg IV; 25HC3S 50 mg/kg 2 hrs before LPS; as of day 3; control 40%
Description: A further experiment to examine the effects of pretreatment of 25HC3S on mortality induced by LPS was conducted. In this experiment, 11-week-old female C57BL/6J mice were IV-injected with LPS (4 mg/kg in PBS). The mice were treated by administration of 25HC3S (50 mg/kg, 10% propylene glycol in PBS) 2 hrs before LPS administration, and mortality (% survival) was monitored. The results are presented below and in FIG. 9C.

[9] = Human Phase I single dose ascending study (Example 7); type: in vivo
Description: A randomized, double blind, and placebo controlled single dose ascending First-in-human Phase 1 study was conducted. The active agent, 25HC3S, was suspended at 30, 100, 300, and 600 mg in 60 mL of ORA-Blend® SF sugar-free flavored oral suspending vehicle. As Placebo dosage form, calcium carbonate, USP, was suspended at 30, 100, 300, and 600 mg in 60 mL of ORA-Blend® SF sugar-free flavored oral suspending vehicle. The suspension, either active or Placebo, was orally administered to each subject. Each dose group had 4 subjects receiving a single dose of active and 2 subjects receiving a single dose of Placebo. All subjects were monitored by health professionals for any potential adverse events for 7 days following administration.

[10] = 25HC3S 20 or 25 mg/kg 2 hours after ATMP 500 mg/kg, within 24 hrs
[11] = oral gavage pretreatment, higher dose, Day 3, to a lesser extent than injection
[12] = post-treatment by injection, first dose 30 min after occlusion, 3 days
[13] = pretreatment by IP injection a day before surgery, once daily 4 days
[14] = 24 hours post tMCAO, vs vehicle, difference not statistically significant
[15] = 24 hours, 3 days, 7 days post tMCAO, vs vehicle, trend of better scores

SMILES: C[C@H](CCCC(C)(C)O)[C@H]1CC[C@H]2[C@@H]3CC=C4C[C@@H](OS(=O)(=O)O)CC[C@]4(C)[C@H]3CC[C@]12C [25HC3S, 5-cholesten-3, 25-diol, 3-sulfate]
- decrease of serum ALT [1, 10]: 58%
- decrease of serum AST [1, 10]: 45%
- decrease of serum LDH [1, 10]: 60%
- markers of liver and kidney function (ALT, AST, ALK, LDH, BUN, glucose) ([1]; 25HC3S 0.5 hours after ATMP, in 48 hrs): returned most markers of liver and kidney function to normal levels
- half-life ([2]; female, mouse, blood, FIG. 3A, read-out: half life in circulation (converted)): ~30 h
- tissue distribution ([2]; indicated tissues, FIG. 3B): widely distributed in different tissues
- survival rate ([3]; 25HC3S 25 mg/kg ip 2 and 24 hrs after ATMP 600 mg/kg, monitored 10 days, vs control): much higher than that of control animals
- liver function (damage) markers ALT, AST, AKP and ADH ([3]; surviving mice, sera at 48 hours, vs control (ATMP and vehicle)): lower values of each enzyme
- attenuation of body weight loss [4]: no statistically significant attenuation
- attenuation of elevated clinical chemistry parameters (LDH, AST and ALT) [4]: no statistically significant attenuation
- serum BUN level [5, 11]: reduced
- serum creatinine level [5, 11]: reduced
- serum BUN level [5, 12]: reduced
- serum creatinine level [5, 12]: reduced
- serum BUN level [5, 13]: significantly improved
- serum creatinine level [5, 13]: significantly improved
- size of infarction ([6]; 25HC3S 25 mg/kg i.p. just before or 16-20 h before ischemia/reperfusion, vs vehicle): no statistically significant difference
- 24-hour survival rate ([6]; 25HC3S 25 mg/kg i.p., vehicle group 64%): 86%
- brain lesion volume ([7]; 24 hours after tMCAO, vs vehicle, difference not statistically significant): smaller
- tissue viability (T2 relaxation time) ([7]; 24 hours post tMCAO): statistically higher tissue viability
- % edema [7, 14]: smaller
- edema volume [7, 14]: smaller
- 7-point Neuroscore [7, 15]: no statistically significant differences
- 20-point Neuroscore [7, 15]: no statistically significant differences
- Limb Placing test [7, 15]: no statistically significant differences
- brain lesion volume ([7]; 7 days after tMCAO, vs vehicle, difference not statistically significant): smaller
- % edema ([7]; 7 days post tMCAO): nearly recovered; also recorded: some higher levels of edema
- edema volume ([7]; 7 days post tMCAO): nearly recovered; also recorded: some higher levels of edema
- tissue viability (T2 relaxation time) ([7]; 7 days post tMCAO): statistically higher tissue viability
- irritation, discomfort or adverse side effects ([7]; ip injection in tMCAO rats): did not cause irritation, discomfort, or any adverse side effects
- body weight recovery ([7]; starting from Day 4 after tMCAO, vs vehicle): faster recovery in body weights
- survival (mortality monitored) ([8]; LPS 30 mg/kg IV): lived significantly longer
- survival (mortality monitored) ([8]; LPS 40 mg/kg IV): lived significantly longer
- survival rate (mortality induced by LPS): 100%
- adverse effects ([9]; single oral dose 30, 100, 300, 600 mg suspension, monitored 7 days): No adverse effects were observed
- tolerability ([9]; single oral dose 30-600 mg): well tolerated
- bioavailability ([9]; single oral dose, plasma samples (FIG. 10)): high bioavailability
